Experimental data from patent publication US20240344241A1, “PROTEINACEOUS MOLECULES AND USES THEREFOR” (THE UNIVERSITY OF QUEENSLAND, priority 2021, published 2024).
Bridge positions count the residues as written; N and C are the ends. Peptide text beside a SMILES is read from it.

These molecules were tested against T1, Human β-FXIIa (Homo sapiens, UniProt P00748) (assay: FXIIa competitive inhibition assay, fluorescent substrate Boc-QGR-MCA).
T1 construct: Human β-FXIIa was obtained from Molecular Innovations, together with human FXa, human FXIa, human α-thrombin, and human plasma kallikrein; purchased Molecular Innovations; host or cells: purified from human plasma
T1 sequence (P00748 373-615 limits assumed, other chains not shown): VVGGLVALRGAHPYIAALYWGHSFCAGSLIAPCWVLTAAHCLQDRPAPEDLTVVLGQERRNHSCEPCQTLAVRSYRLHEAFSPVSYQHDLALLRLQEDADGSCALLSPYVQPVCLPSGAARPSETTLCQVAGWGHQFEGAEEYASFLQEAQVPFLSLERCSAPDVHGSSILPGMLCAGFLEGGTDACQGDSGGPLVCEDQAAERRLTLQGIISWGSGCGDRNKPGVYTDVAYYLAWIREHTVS
Type: biochemical
Source text: Cyclic [I7F]MCoFx1 (also referred to as cyclic MCoFx6) was synthesized using solid phase peptide synthesis ([[…]] [SEQ ID NO: 97]). For this inhibitor, Tyr33 was mutated back to serine as per the original mRNA display screen (FIG. 1). Cyclic MCoFx6 was screened using a competitive inhibition assay, with the substrate being changed from a colorimetric substrate (Ac-QRFR-pNA in the data of Tables 7 and 10) to a fluorescent substrate (Boc-QGR-MCA) to allow the assay to be run with a lower concentration of enzyme. The assay was performed as described for Examples 2 and 3, except that the FXIIa concentration was 0.5 nM and the substrate concentration was 50 μM (KM=187 μM).
The new variants were screened using competitive inhibition assays, with the substrate being changed from a colorimetric substrate (Ac-QRFR-pNA in the data of Tables 7 and 10) to a fluorescent substrate (Boc-QGR-MCA) to allow the assay to be run with a lower concentration of enzyme. Assays were performed as described for Examples 2 and 3, except that the FXIIa concentration was 0.5 nM and the substrate concentration was 50 μM (KM=187 μM). […] The effect of amino acid substitutions within loop 2 (Arg12, Arg13), loop 5 (Ala25, Arg27) or loop 6 (Asp34) on the activity of cyclic MCoFx7 against FXIIa was determined (refer to Table 14). […] Additionally, mutating Arg to Glu (reversing the side chain charge) only led to two-fold weaker activity. The adjacent residue Arg13 could also be mutated to Lys with no change in activity. Within loop 5, mutating Ala25 to Lys produced a slight gain in activity, whereas the Ala to Pro mutation led to a slight decrease in activity. Both mutations at Arg27 led to losses in activity in the order of two-fold (His) or 3.2-fold (Gly).
The activity of acyclic and cyclic MCoFx1-5 and analogues thereof was assessed in competitive inhibition assays, as previously described in Swedberg et al. (2016) J Med Chem, 59: 7287-7292. Human β-FXIIa was obtained from Molecular Innovations, together with human FXa, human FXIa, human α-thrombin, and human plasma kallikrein. Human cationic trypsin and human plasmin were obtained from Sigma-Aldrich, and recombinant human matriptase was sourced from R&D Systems. Recombinant human urokinase (uPA) and recombinant human tissue plasminogen activator (tPA) were expressed in Expi293 cells, as previously described in Li et al. (2019) Chembiochem, 20: 46-50. FXIIa inhibition assays were performed in clear, low-binding 96-well plates using 250 μL (final volume) of assay buffer (0.1 M Tris-HCl pH 8.0, 0.1 M NaCl, 10 mM CaCl2 and 0.005% Triton X-100). Inhibitors were serially diluted and incubated with 10 nM FXIIa at room temperature to reach equilibrium. After adding 100 μM Ac-QRFR-pNA substrate (KM=162 μM), enzymatic activity was measured by monitoring release of the pNA moiety using a TECAN infinite M1000 Pro plate reader (A=405 nm, reading interval, 10 s; assay time course, 7 min). Assays were conducted in three times in duplicate. Substrate kinetic constants (Michaelis-Menten) and inhibition constants (Morrison K) were determined by non-linear regression using Prism 7 (GraphPad). Selectivity assays with off-target proteases were performed in a similar way, except that different concentrations of enzyme and substrate were used, as indicated in Table 16. For assays using a fluorescent substrate (peptide-4-methylcoumaryl-7-amide, MCA), black low-binding 96-well plates were used and activity was measured using a TECAN infinite M1000 pro plate reader (λex 360 nm, λem 460 nm, reading interval, 30 s; assay time course, 5-30 min).

`CC[C@H](C)[C@@H]1NC(=O)CNC(=O)CNC(=O)[C@H](CC(=O)O)NC(=O)[C@H](CO)NC(=O)CNC(=O)[C@H](CO)NC(=O)CNC(=O)[C@@H]2CSSC[C@@H]3NC(=O)[C@H](CC(=O)O)NC(=O)[C@H](CO)NC(=O)[C@H](CC(=O)O)NC(=O)[C@H](CCCNC(=N)N)NC(=O)[C@H]([C@@H](C)O)NC(=O)[C@@H]4CSSC[C@H](NC(=O)[C@H]([C@@H](C)CC)NC(=O)[C@H](CSSC[C@H](NC1=O)C(=O)N1CCC[C@H]1C(=O)N[C@@H](CCCNC(=N)N)C(=O)N[C@@H]([C@@H](C)CC)C(=O)NCC(=O)N[C@@H](CCCNC(=N)N)C(=O)N[C@@H](CC(C)C)C(=O)N4)NC(=O)[C@H](C)NC(=O)CNC(=O)[C@@H]1CCCN1C3=O)C(=O)N[C@@H](CCCNC(=N)N)C(=O)N[C@@H](C)C(=O)N[C@@H]([C@@H](C)O)C(=O)N[C@@H](CCCNC(=N)N)C(=O)N[C@@H](Cc1ccccc1)C(=O)N2` [Cyclic [R12T]MCoFx7] (cyclo(ACICRATRFCGSGSDGGICPRIGRLCTRDSDCPG); disulfide 2-19, 4-26, 10-32) and `CC[C@H](C)[C@@H]1NC(=O)CNC(=O)CNC(=O)[C@H](CC(=O)O)NC(=O)[C@H](CO)NC(=O)CNC(=O)[C@H](CO)NC(=O)CNC(=O)[C@@H]2CSSC[C@@H]3NC(=O)[C@H](CC(=O)O)NC(=O)[C@H](CO)NC(=O)[C@H](CC(=O)O)NC(=O)[C@H](CCCNC(=N)N)NC(=O)[C@H](C(C)C)NC(=O)[C@@H]4CSSC[C@H](NC(=O)[C@H]([C@@H](C)CC)NC(=O)[C@H](CSSC[C@H](NC1=O)C(=O)N1CCC[C@H]1C(=O)N[C@@H](CCCNC(=N)N)C(=O)N[C@@H]([C@@H](C)CC)C(=O)NCC(=O)N[C@@H](CCCNC(=N)N)C(=O)N[C@@H](CC(C)C)C(=O)N4)NC(=O)[C@H](C)NC(=O)CNC(=O)[C@@H]1CCCN1C3=O)C(=O)N[C@@H](CCCNC(=N)N)C(=O)N[C@@H](C)C(=O)N[C@@H]([C@@H](C)O)C(=O)N[C@@H](CCCNC(=N)N)C(=O)N[C@@H](Cc1ccccc1)C(=O)N2` [Cyclic [R12V]MCoFx7] (cyclo(ACICRATRFCGSGSDGGICPRIGRLCVRDSDCPG); disulfide 2-19, 4-26, 10-32) are within error of each other in Ki: 0.065 ± 0.005 nM for the first, 0.069 ± 0.005 nM for the second.

Going from `CC[C@H](C)[C@@H]1NC(=O)CNC(=O)CNC(=O)[C@H](CC(=O)O)NC(=O)[C@H](CO)NC(=O)CNC(=O)[C@H](CO)NC(=O)CNC(=O)[C@@H]2CSSC[C@@H]3NC(=O)[C@H](CC(=O)O)NC(=O)[C@H](CO)NC(=O)[C@H](CC(=O)O)NC(=O)[C@H](CCCCN)NC(=O)[C@H](CCCNC(=N)N)NC(=O)[C@@H]4CSSC[C@H](NC(=O)[C@H]([C@@H](C)CC)NC(=O)[C@H](CSSC[C@H](NC1=O)C(=O)N1CCC[C@H]1C(=O)N[C@@H](CCCNC(=N)N)C(=O)N[C@@H]([C@@H](C)CC)C(=O)NCC(=O)N[C@@H](CCCNC(=N)N)C(=O)N[C@@H](CC(C)C)C(=O)N4)NC(=O)[C@H](C)NC(=O)CNC(=O)[C@@H]1CCCN1C3=O)C(=O)N[C@@H](CCCNC(=N)N)C(=O)N[C@@H](C)C(=O)N[C@@H]([C@@H](C)O)C(=O)N[C@@H](CCCNC(=N)N)C(=O)N[C@@H](Cc1ccccc1)C(=O)N2` [Cyclic [R13K]MCoFx7] (cyclo(ACICRATRFCGSGSDGGICPRIGRLCRKDSDCPG); disulfide 2-19, 4-26, 10-32) to `CC[C@H](C)[C@@H]1NC(=O)CNC(=O)CNC(=O)[C@H](CC(=O)O)NC(=O)[C@H](CO)NC(=O)CNC(=O)[C@H](CO)NC(=O)CNC(=O)[C@@H]2CSSC[C@@H]3NC(=O)[C@H](CC(=O)O)NC(=O)[C@H](CO)NC(=O)[C@H](CC(=O)O)NC(=O)[C@H](CCCNC(=N)N)NC(=O)[C@H](CCCNC(=N)N)NC(=O)[C@@H]4CSSC[C@H](NC(=O)[C@H]([C@@H](C)CC)NC(=O)[C@H](CSSC[C@H](NC1=O)C(=O)N1CCC[C@H]1C(=O)N[C@@H](CCCNC(=N)N)C(=O)N[C@@H]([C@@H](C)CC)C(=O)NCC(=O)N[C@@H](CCCNC(=N)N)C(=O)N[C@@H](CC(C)C)C(=O)N4)NC(=O)[C@H](C)NC(=O)CNC(=O)[C@@H]1CCCN1C3=O)C(=O)N[C@@H](CCCNC(=N)N)C(=O)N[C@@H](C)C(=O)N[C@@H]([C@@H](C)O)C(=O)NCC(=O)N[C@@H](Cc1ccccc1)C(=O)N2` [Cyclic [R27G]MCoFx7] (cyclo(ACICRATGFCGSGSDGGICPRIGRLCRRDSDCPG); disulfide 2-19, 4-26, 10-32), the Ki rises from 0.068 ± 0.003 nM to 0.21 ± 0.008 nM (3.1-fold).
